Test results from the NIST ThermoML archive (doi:10.1016/j.jct.2016.07.005).

Assay: xn = mol fraction of the nth substance listed
Conditions: 100 kPa, Liquid; for viscosity: Concentric cylinders viscometry; for mass density: Vibrating tube method

CN1CCC[C@H]1c1cccnc1 [(-)-3-(N-methylpyrrolidino)pyridine] + OCCCO
Conditions | mass density [kg/m3] | viscosity [mPa·s]
293.15 K, x1 = 0.1 | 1049.36 | 63.86
293.15 K, x1 = 0.1999 | 1045.43 | 63.55
293.15 K, x1 = 0.3 | 1041.3 | 55.97
293.15 K, x1 = 0.3994 | 1037.05 | 44.97
293.15 K, x1 = 0.5 | 1032.67 | 33.15
293.15 K, x1 = 0.6004 | 1028.25 | 22.75
293.15 K, x1 = 0.7 | 1023.76 | 14.91
293.15 K, x1 = 0.8 | 1019.33 | 9.805
293.15 K, x1 = 0.9 | 1014.74 | 6.894
293.15 K, x1 = 1 | 1010.23 | 4.694
298.15 K, x1 = 0.1 | 1045.96 | 48.97
298.15 K, x1 = 0.1999 | 1041.83 | 48.13
298.15 K, x1 = 0.3 | 1037.55 | 42.26
298.15 K, x1 = 0.3994 | 1033.17 | 34.05
298.15 K, x1 = 0.5 | 1028.72 | 25.35
298.15 K, x1 = 0.6004 | 1024.24 | 17.71
298.15 K, x1 = 0.7 | 1019.71 | 11.93
298.15 K, x1 = 0.8 | 1015.26 | 8.105
298.15 K, x1 = 0.9 | 1010.67 | 5.832
298.15 K, x1 = 1 | 1006.16 | 4.048
303.15 K, x1 = 0.1 | 1042.55 | 37.97
303.15 K, x1 = 0.1999 | 1038.21 | 36.9
303.15 K, x1 = 0.3 | 1033.78 | 32.31
303.15 K, x1 = 0.3994 | 1029.3 | 26.12
303.15 K, x1 = 0.5 | 1024.77 | 19.64
303.15 K, x1 = 0.6004 | 1020.24 | 13.95
303.15 K, x1 = 0.7 | 1015.68 | 9.624
303.15 K, x1 = 0.8 | 1011.2 | 6.722
303.15 K, x1 = 0.9 | 1006.61 | 4.943
303.15 K, x1 = 1 | 1002.1 | 3.518
308.15 K, x1 = 0.1 | 1039.14 | 29.84
308.15 K, x1 = 0.1999 | 1034.59 | 28.71
308.15 K, x1 = 0.3 | 1030.01 | 25.12
308.15 K, x1 = 0.3994 | 1025.41 | 20.41
308.15 K, x1 = 0.5 | 1020.81 | 15.5
308.15 K, x1 = 0.6004 | 1016.23 | 11.19
308.15 K, x1 = 0.7 | 1011.64 | 7.885
308.15 K, x1 = 0.8 | 1007.15 | 5.621
308.15 K, x1 = 0.9 | 1002.55 | 4.2
308.15 K, x1 = 1 | 998.055 | 3.088
313.15 K, x1 = 0.1 | 1035.71 | 23.69
313.15 K, x1 = 0.1999 | 1030.96 | 22.59
313.15 K, x1 = 0.3 | 1026.23 | 19.74
313.15 K, x1 = 0.3994 | 1021.52 | 16.11
313.15 K, x1 = 0.5 | 1016.85 | 12.36
313.15 K, x1 = 0.6004 | 1012.22 | 9.06
313.15 K, x1 = 0.7 | 1007.6 | 6.513
313.15 K, x1 = 0.8 | 1003.09 | 4.749
313.15 K, x1 = 0.9 | 998.498 | 3.625
313.15 K, x1 = 1 | 994.014 | 2.758
318.15 K, x1 = 0.1 | 1032.27 | 19.28
318.15 K, x1 = 0.1999 | 1027.32 | 18.26
318.15 K, x1 = 0.3 | 1022.43 | 15.95
318.15 K, x1 = 0.3994 | 1017.62 | 13.08
318.15 K, x1 = 0.5 | 1012.88 | 10.14
318.15 K, x1 = 0.6004 | 1008.21 | 7.559
318.15 K, x1 = 0.7 | 1003.56 | 5.549
318.15 K, x1 = 0.8 | 999.04 | 4.128
318.15 K, x1 = 0.9 | 994.453 | 3.18
318.15 K, x1 = 1 | 989.984 | 2.411
323.15 K, x1 = 0.1 | 1028.82 | 15.87
323.15 K, x1 = 0.1999 | 1023.66 | 14.94
323.15 K, x1 = 0.3 | 1018.63 | 13.05
323.15 K, x1 = 0.3994 | 1013.72 | 10.76
323.15 K, x1 = 0.5 | 1008.9 | 8.437
323.15 K, x1 = 0.6004 | 1004.18 | 6.389
323.15 K, x1 = 0.7 | 999.506 | 4.782
323.15 K, x1 = 0.8 | 994.989 | 3.625
323.15 K, x1 = 0.9 | 990.406 | 2.837
323.15 K, x1 = 1 | 985.962 | 2.195
